Laboratory results from article PMC6628648, “Enabling microbial syringol conversion through structure-guided protein engineering” (Proceedings of the National Academy of Sciences of the …, 2019).

Molecular target: GcoA-F169A (Amycolatopsis sp., UniProt P0DPQ7, F169A)
Assay: End-point stoichiometry and coupling assay (formaldehyde by tryptophan assay, aromatics by HPLC, NADH by UV/vis)
Assay type: biochemical, Amycolatopsis sp. ATCC 39116
Set-up: GST (N, cleaved yes); made in house; host or cells: E. coli Rosetta 2 (DE3)
Settings: for Coupling efficiency: F169A, molar ratio formaldehyde produced per NADH consumed, 200 µM NADH, 200 µM aromatic substrate; for % Formaldehyde produced: referenced to NADH consumed; for formaldehyde produced at reaction completion: 100 μM substrate
From the text: Fig. 1. Quantitative analyses of substrate consumption and product generation indicate nearly complete coupling of NADH/O2 consumption to substrate O-demethylation for guaiacol and progressively more uncoupling for syringol and 3MC. […] Reactants and products were quantified when the UV/vis spectrum ceased changing and the reaction was deemed complete. The total NADH consumed is compared with the amounts of formaldehyde and demethylated aromatic compound produced. Pyrogallol, the O-demethylated product of 3MC, is unstable in air under the conditions used in the assay and was not detected. Error bars represent ±1 SD from three or more independent measurements. P values comparing NADH consumption and formaldehyde production were 0.035 for guaiacol, 0.20 for 100 µM syringol, 0.41 for 200 µM syringol, and 0.0035 for 3MC. For NADH consumption and aromatic product production, these P values were 0.011 for guaiacol, 0.00031 for 100 µM syringol, and 0.0084 for 200 µM syringol.
The [formaldehyde] produced on reaction with GcoA-F169A and substrates was determined using a colorimetric assay with tryptophan ([28], [42]); details are provided in SI Appendix.
HPLC was used to verify the O-demethylated product of GcoA-F169A GcoA/GcoB with guaiacol, syringol, or 3MC. In addition, discontinuous HPLC was used to determine the specific activity of aromatic product disappearance. Details are provided in SI Appendix. […]
vi = Vmax[S]/(KM + [S]) (4) […]
Formaldehyde determination. A colorimetric assay using tryptophan can be used to quantify the amount of formaldehyde produced in F169 GcoA/B reactions with guaiacol, syringol, or 3MC. 0.2 µM each of F169 GcoA mutants and GcoB were dissolved in air-saturated buffer (25 mM HEPES, 50 mM NaCl) in a cuvette at pH 7.5, 25 °C. 100 µg/mL catalase was added to each reaction to capture any H2O2 formed during the uncoupled reaction. 200 μM NADH was added and the background rate recorded. 100 (guaiacol, syringol, or 3MC) or 200 (syringol) μM of substrate was then added and the reaction monitored until there was no more change, due to either substrate, NADH or O2 depletion, whichever occurred first. 200 µL of the reaction was then quenched by adding 200 µL of a 0.1% tryptophan solution in 50% ethanol and 200 µL of 90% sulfuric acid. Upon thorough mixing, 40 µL of 1% FeCl3 was added. The solution was then incubated in a heating block for 90 min at 70 °C. After cooling, the absorbance was read at 575 nm and the [formaldehyde] calculated by using ε575 nm = 4.2 mM-1 cm-1, obtained with formaldehyde as a standard (1). A negative control included everything but the substrate and was used as a baseline.
HPLC for product identification and specific activity measurement. Analyte analysis of the above end-point reactions (100 μM guaiacol, syringol, or 3MC, or 200 μM syringol) was performed on an Agilent 1100 LC system (Agilent Technologies) equipped with a G1315B diode array detector (DAD). Each sample and standard was injected at a volume of 10 μL onto a Symmetry C18 column 5 μm, 4.6 x 150 mm column (Waters). The column temperature was maintained at 30 °C and the buffers used to separate the analytes of interest was 0.01% TFA in water (A)/ acetonitrile (B). The separation was carried out using a gradient program of: (A) = 99% and (B) = 1% at time t = 0 min; (A) = 99% and (B) = 1% at time t = 2 min, (A) = 50% and (B) = 50% at t = 8 min; (A) = 1% and (B) = 99% at t = 8.01 min; (A) = 99% and (B) = 1% at t = 10.01 min; (A) = 99% and (B) = 1% at t = 11 min. The flow rate was held constant at 1.5 mL min-1, resulting in a run time of 11 minutes. DAD wavelengths of 210 and 325 nm were used for analysis of the analytes of interest. Standard curves were generated using 0-500 μM of guaiacol, syringol, 3MC, catechol, and pyrogallol. Integrated intensities vs [standards] were plotted and the resulting standard curves used to quantify the reactants and products. […]

[1] = GcoA-F169A, 100 µM substrate + 100 µM NADH
[2] = GcoA-F169A, 200 μM NADH, 210 μM O2
[3] = GcoA-F169A, NADH and syringol ∼200 μM each, 210 μM O2

Sequence of GcoA-F169A (P0DPQ7 whole entry F169A): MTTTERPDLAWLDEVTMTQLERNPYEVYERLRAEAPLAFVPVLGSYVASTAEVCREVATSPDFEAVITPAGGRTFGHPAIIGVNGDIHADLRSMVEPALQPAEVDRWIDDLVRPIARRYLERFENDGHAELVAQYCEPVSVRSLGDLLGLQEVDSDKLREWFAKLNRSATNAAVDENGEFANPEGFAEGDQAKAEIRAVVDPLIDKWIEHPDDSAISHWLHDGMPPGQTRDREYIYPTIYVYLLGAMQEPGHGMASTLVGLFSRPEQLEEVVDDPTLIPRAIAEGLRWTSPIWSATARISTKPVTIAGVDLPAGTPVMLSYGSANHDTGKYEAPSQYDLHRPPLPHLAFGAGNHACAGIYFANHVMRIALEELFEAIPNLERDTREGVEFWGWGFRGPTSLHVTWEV

Row | Compound | Coupling efficiency [%] | % Formaldehyde produced [1] [%] | formaldehyde produced at reaction completion [2] [µM] | % Formaldehyde produced (GcoA-F169A, 100 µM substrate + 200 µM NADH) [%] | singly demethylated intermediate 3MC observed at the end of the reaction (GcoA-F169A, 100 μM syringol, 200 μM NADH, 210 μM O2) [µM] | 3MC generated [3] [µM] | formaldehyde generated [3] [µM] | syringol consumed [3] [µM]
1 | COc1cccc(O)c1O [3MC, 3-methoxycatechol] | 64 ± 10 | 52 ± 7 | ~100 |  |  |  |  | 
2 | COc1ccccc1O [guaiacol, 2-methoxyphenol] | 103 ± 7 | 100 ± 10 |  |  |  |  |  | 
3 | COc1cccc(OC)c1O [syringol, 2,6-dimethoxyphenol] | 104 ± 6 | 125 ± 6 | 170 ± 10 | 91 ± 8 | 50 ± 4 | 120 ± 2 | 200 ± 3 | 150 ± 6
